According to PMC10460844, “Real‐Time Monitoring of Multitarget Antimicrobial Mechanisms of Peptoids Using Label‐Free Imaging with Optical Diffraction Tomography” (Advanced Science, 2023):
Values after ≈ are worked out from the molar mass of the structure shown. Counter-ions that a name gives are not always drawn. Like-named read-outs stand apart in the source and are kept apart here. Square brackets hold non-standard residues; d marks the D form. Peptide text beside a SMILES is read from it. Gly(N(CH2)2(3-indolyl)) = O=C(O)CNCCc1c[nH]c2ccccc12; Nspe = C[C@H](NCC(=O)O)c1ccccc1; Nphe = O=C(O)CNCc1ccccc1; Nlys = NCCCCNCC(=O)O

How the values were obtained:
S. aureus ATCC 25923 = format: cell-based, Staphylococcus aureus
Method: (§1) The antibacterial activity of the peptoids was evaluated against gram‐positive (Staphylococcus aureus, ATCC 25 923) and gram‐negative (Escherichia coli, ATCC 25 922) bacteria. […] The MIC of each peptoid was determined using a broth dilution assay. For each assay, the primary culture of either S. aureus or E. coli was grown overnight in cation‐adjusted Mueller Hinton broth 2 (MHB2) media at 37 °C with shaking. A secondary culture was prepared the next day, grown for 3–4 h, and then diluted in MHB2 media with a final concentration of 0.001% acetic acid and 0.02% bovine serum albumin to obtain a calculated optical density (OD) of 0.001. This corresponded to ≈2–5 × 10^5 colony‐forming units (CFU mL^−1) of bacteria. Using 96‐well polypropylene plates (Eppendorf, Hamburg, Germany), 100 µL of 2–5 × 10^5 CFU mL^−1 bacteria were added in triplicate for each peptoid. Each peptoid was assayed at six different concentrations in two‐fold serial dilutions. The maximum peptoid concentration was 25 µM. […] The MIC value determination was performed in triplicate. The MIC was defined as the lowest peptoid concentration that prevented turbidity during visual inspection.

E. coli ATCC 25922 = format: cell-based, Escherichia coli
Method: as §1

rat erythrocytes = assay: Hemolysis assay; format: cell-based
In short: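 Washed Sprague-Dawley rat erythrocytes (10% suspension in PBS pH 7.4) mixed with peptoids (0–100 µM), 60 min at 37 °C; supernatant A540 expressed as % of 1% Triton X-100 lysis. HC10/HC50 are concentrations giving 10%/50% hemolysis; Hmax is hemolysis at 100 µM.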

[1] = Analytical reversed-phase HPLC elution (hydrophobicity); format: physicochemical; settings: Table S1; analytical RP-HPLC, SunFire C18, water/ACN + 0.1% TFA, 5 to 100% B linear over 30 min, 1 mL/min, UV 220 nm; approximate comparison of hydrophobicity
In short: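 Analytical reversed-phase HPLC on a C18 column (4.6 × 250 mm, 5 μm) at 1 mL/min, water/acetonitrile each with 0.1% TFA. Held at 5% B for 2 min, then linear to 100% B over 30 min and held 5 min, with UV detection at 220 nm; retention time (tR) serves as hydrophobicity measure.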

[2] = Table S2, broth dilution, MHB2, 37 °C 24 h, max 25 µM, mean of triplicate

Structure (SMILES)	MIC S. aureus ATCC25923 (S. aureus ATCC 25923; ATCC 25923)	MIC E. coli ATCC25922 (E. coli ATCC 25922; ATCC 25922)	Hmax (100 µM) (rat erythrocytes)	HC10 (rat erythrocytes; red cells of rat)	HC50 (rat erythrocytes; red cells of rat)	MIC S. aureus ATCC25923 (S. aureus ATCC 25923; [2])	HPLC elution [1]	MIC E. coli ATCC25922 (E. coli ATCC 25922; [2])	H max (100 µM) (rat erythrocytes)	HC10 (rat erythrocytes; pH 7.4)	HC50 (rat erythrocytes; pH 7.4)
C[C@@H](c1ccccc1)N(CC(N)=O)C(=O)CN(C(=O)CN(CCCCN)C(=O)CN(C(=O)CN(CCc1c[nH]c2ccccc12)C(=O)CN(CCCCN)C(=O)CN(CCc1c[nH]c2ccccc12)C(=O)CN(C(=O)CN(CCCCN)C(=O)CN(C(=O)CN(C(=O)CNCCCCN)[C@@H](C)c1ccccc1)[C@@H](C)c1ccccc1)[C@@H](C)c1ccccc1)[C@@H](C)c1ccccc1)[C@@H](C)c1ccccc1 [15-AcOH]	3.1 µM (≈ 5.88 µg/mL)	6.3 µM (≈ 12 µg/mL)	34.1±1.1%	39.2 µM	> 100 µM	–	–	–	–	–	–
C[C@@H](c1ccccc1)N(CC(N)=O)C(=O)CN(C(=O)CN(CCCCN)C(=O)CN(C(=O)CN(CCc1c[nH]c2ccccc12)C(=O)CN(CCCCN)C(=O)CN(CCc1c[nH]c2ccccc12)C(=O)CN(C(=O)CN(CCCCN)C(=O)CN(C(=O)CN(C(=O)CNCCCCN)[C@@H](C)c1ccccc1)[C@@H](C)c1ccccc1)[C@@H](C)c1ccccc1)[C@@H](C)c1ccccc1)[C@@H](C)c1ccccc1 [15-HCl]	3.1 µM	6.3 µM	33.4±9.7%	50.4 µM	> 100 µM	–	–	–	–	–	–
C[C@@H](c1ccccc1)N(CC(=O)N(CCCCN)CC(=O)N(CCc1c[nH]c2ccccc12)CC(=O)N(CCc1c[nH]c2ccccc12)CC(N)=O)C(=O)CN(CCCCN)C(=O)CN(CCCCN)C(=O)CN(C(=O)CN(C(=O)CN(CCCCN)C(=O)CN(C(=O)CN(C(=O)CNCCCCN)[C@@H](C)c1ccccc1)[C@@H](C)c1ccccc1)[C@@H](C)c1ccccc1)[C@@H](C)c1ccccc1 [29-AcOH] (H-[Nlys][Nspe][Nspe][Nlys][Nspe][Nspe][Nlys][Nlys][Nspe][Nlys][Gly(N(CH2)2(3-indolyl))][Gly(N(CH2)2(3-indolyl))]-NH2)	12.5 µM (≈ 23.3 µg/mL)	6.3 µM (≈ 11.7 µg/mL)	5.2±0.2%	> 100 µM	> 100 µM	–	–	–	–	–	–
C[C@@H](c1ccccc1)N(CC(=O)N(CCCCN)CC(=O)N(CCc1c[nH]c2ccccc12)CC(=O)N(CCc1c[nH]c2ccccc12)CC(N)=O)C(=O)CN(CCCCN)C(=O)CN(CCCCN)C(=O)CN(C(=O)CN(C(=O)CN(CCCCN)C(=O)CN(C(=O)CN(C(=O)CNCCCCN)[C@@H](C)c1ccccc1)[C@@H](C)c1ccccc1)[C@@H](C)c1ccccc1)[C@@H](C)c1ccccc1 [29-HCl] (H-[Nlys][Nspe][Nspe][Nlys][Nspe][Nspe][Nlys][Nlys][Nspe][Nlys][Gly(N(CH2)2(3-indolyl))][Gly(N(CH2)2(3-indolyl))]-NH2)	12.5 µM	12.5 µM	4.3±0.3%	> 100 µM	> 100 µM	–	–	–	–	–	–
C[C@@H](c1ccccc1)N(CC(N)=O)C(=O)CN(CCCCN)C(=O)CN(CCCCN)C(=O)CN(C(=O)CN(C(=O)CN(CCCCN)C(=O)CN(C(=O)CN(C(=O)CN(CCCCN)C(=O)CN(CCc1c[nH]c2ccccc12)C(=O)CN(CCc1c[nH]c2ccccc12)C(=O)CNCCCCN)[C@@H](C)c1ccccc1)[C@@H](C)c1ccccc1)[C@@H](C)c1ccccc1)[C@@H](C)c1ccccc1 [32-AcOH]	6.3 µM (≈ 11.7 µg/mL)	6.3 µM (≈ 11.7 µg/mL)	13.8±1.1%	83.0 µM	> 100 µM	–	–	–	–	–	–
C[C@@H](c1ccccc1)N(CC(N)=O)C(=O)CN(CCCCN)C(=O)CN(CCCCN)C(=O)CN(C(=O)CN(C(=O)CN(CCCCN)C(=O)CN(C(=O)CN(C(=O)CN(CCCCN)C(=O)CN(CCc1c[nH]c2ccccc12)C(=O)CN(CCc1c[nH]c2ccccc12)C(=O)CNCCCCN)[C@@H](C)c1ccccc1)[C@@H](C)c1ccccc1)[C@@H](C)c1ccccc1)[C@@H](C)c1ccccc1 [32-HCl]	6.3 µM	6.3 µM	8.7±0.6%	> 100 µM	> 100 µM	–	–	–	–	–	–
C[C@@H](c1ccccc1)N(CC(=O)N(CCCCN)CC(=O)N(CC(=O)N(CC(=O)N(CCCCN)CC(=O)N(CC(=O)N(CC(=O)N(CCCCN)CC(N)=O)[C@@H](C)c1ccccc1)[C@@H](C)c1ccccc1)[C@@H](C)c1ccccc1)[C@@H](C)c1ccccc1)C(=O)CN(C(=O)CN(CCCCN)C(=O)CN(CCc1c[nH]c2ccccc12)C(=O)CNCCc1c[nH]c2ccccc12)[C@@H](C)c1ccccc1 [37-AcOH] (H-[Gly(N(CH2)2(3-indolyl))][Gly(N(CH2)2(3-indolyl))][Nlys][Nspe][Nspe][Nlys][Nspe][Nspe][Nlys][Nspe][Nspe][Nlys]-NH2)	1.6 µM (≈ 3.04 µg/mL)	6.3 µM (≈ 12 µg/mL)	98.9±8.0%	12.5 µM	26.0 µM	–	–	–	–	–	–
C[C@@H](c1ccccc1)N(CC(=O)N(CCCCN)CC(=O)N(CC(=O)N(CC(=O)N(CCCCN)CC(=O)N(CC(=O)N(CC(=O)N(CCCCN)CC(N)=O)[C@@H](C)c1ccccc1)[C@@H](C)c1ccccc1)[C@@H](C)c1ccccc1)[C@@H](C)c1ccccc1)C(=O)CN(C(=O)CN(CCCCN)C(=O)CN(CCc1c[nH]c2ccccc12)C(=O)CNCCc1c[nH]c2ccccc12)[C@@H](C)c1ccccc1 [37-HCl] (H-[Gly(N(CH2)2(3-indolyl))][Gly(N(CH2)2(3-indolyl))][Nlys][Nspe][Nspe][Nlys][Nspe][Nspe][Nlys][Nspe][Nspe][Nlys]-NH2)	3.1 µM	6.3 µM	86.6±5.7%	14.4 µM	56.5 µM	–	–	–	–	–	–
C[C@@H](c1ccccc1)N(CC(=O)N(CCCCN)CC(=O)N(CC(=O)N(CC(N)=O)Cc1ccccc1)Cc1ccccc1)C(=O)CN(CCCCN)C(=O)CN(CCCCN)C(=O)CN(C(=O)CN(C(=O)CN(CCCCN)C(=O)CN(C(=O)CN(C(=O)CNCCCCN)[C@@H](C)c1ccccc1)[C@@H](C)c1ccccc1)[C@@H](C)c1ccccc1)[C@@H](C)c1ccccc1 [peptoid 45] (H-[Nlys][Nspe][Nspe][Nlys][Nspe][Nspe][Nlys][Nlys][Nspe][Nlys][Nphe][Nphe]-NH2)	–	–	4.5±0.2%	–	–	25 µM (≈ 44 µg/mL)	47.3 % MeCN	> 25 µM	4.5 ± 0.2%	> 100 µM	> 100 µM
